This note sets out measurements from US7897568B2, “Compositions for treatment of cancer” (priority 2006, dated 2011).

Where a SMILES comes first, the peptide text is derived from it. Where no end group is shown, it is not given here.

One assay addresses SNCG (Homo sapiens, UniProt O76070). Nature of the assay: ANS fluorescence of the SNCG-ANK peptide complex. Format: binding. More on the design: The SNCG coding region was amplified from the human cDNA clone; GST (N, cleaved yes); made in house; host or cells: Escherichia coli BL21 (DE3). The conditions noted are these: SNCG 30 μM, ANK peptide 240 μM, 0.02 mg/mL ANS; versus peptide only. From the text:
ANS fluorescence was also utilized to study the conformational properties of SNCG and the SNCG-ANK peptide interaction (See FIG. 2C). Changes in ANS fluorescence intensity are frequently used to monitor formation of partially folded intermediates during protein unfolding and refolding (Semisotnov et al. Biopolymers 1991 31:119-128), as well as to analyze the hydrophobic surfaces of proteins (Stryer, L. J. Mol. Biol. 1965 13:482-495). The interaction of ANS with solvent-exposed hydrophobic clusters is accompanied by a considerable increase in the dye fluorescence intensity and a pronounced blue shift of the fluorescence maximum. […] The addition of ANK peptide induced significant changes in ANS fluorescence properties, including a dramatic increase in the fluorescence intensity and a blue shift in λmax. […] Importantly, formation of the SNCG-ANK complex is accompanied by an approximate 20% decrease in ANS fluorescence intensity of only peptide which is affected by the presence of SNCG, confirming the interaction between SNCG and ANK peptide.

Assay [1] relates to MCF7-SNCG cells. The assay can be described thus: Mitotic index and apoptosis by DAPI staining after paclitaxel. The format is cell-based. The conditions noted are these: SNCG cells expressing EGFP-ANK versus pEGFP, paclitaxel 18 hours. Here is the method: (§1) FIG. 7A through D show expression of EGFP-ANK disrupting the SNCG-mediated inhibition of mitotic checkpoint function as measured by microscopy and flow cytometry. The bar graphs show the expression of EGFP-ANK disrupting the SNCG-mediated inhibition of mitotic checkpoint function, using (FIG. 7A) DAPI and (FIG. 7B) anti-phospho-H^3 staining. For graphs of FIGS. 7A and 7B, the cells treated with 0.5 μM paclitaxel for 18 hours or untreated control cells were fixed with 4% paraformaldehyde for 20 minutes at room temperature. In both cases, the cells were then stained with 1 μg/ml of DAPI or 2 μg/ml anti-phospho-H3 primary and Texas Red goat anti-rabbit secondary antibodies (Invitrogen). Green fluorescent cells were identified for positive transfected cells. For each sample, 200-300 cells randomly chosen from 5 different views under a Nikon fluorescent microscope were scored for interphase, mitotic, or apoptotic based upon nuclei morphology. The data shown were derived from three separate transfections (p<0.01). […]
(§2) Two days after transfection, cells were exposed to paclitaxel for 18 hours and numbers of mitotic arrested and apoptotic cells were counted after DAPI staining. […] These cells were also probed with rabbit polyclonal anti-phospho-H^3 and the mitotic index was calculated according to the proportion of the number of H^3 stained EGFP positive cells to total EGFP positive cells (FIG. 7B). […]

The test system of another assay is MCF7-Neo cells. The description is as above. Format: cell-based. The settings on record: neo cells expressing EGFP-ANK versus pEGFP, paclitaxel 18 hours. Here is the method: as §1, §2
The subject of assay [2] is MCF7-SNCG cells. The assay can be described thus: Flow cytometry (PI cell cycle and anti-phospho-H3) after paclitaxel. The format is cell-based. The settings on record: 0.5 μM paclitaxel. Here is the method:
as §1, §2

SNCG, sequence (O76070 whole entry): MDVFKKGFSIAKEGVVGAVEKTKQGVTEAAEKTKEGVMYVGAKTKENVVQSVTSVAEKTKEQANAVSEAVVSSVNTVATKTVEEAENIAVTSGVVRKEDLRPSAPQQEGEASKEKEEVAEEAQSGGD

Take `CC[C@H](C)[C@H](NC(=O)[C@H](CS)NC(=O)CNC(=O)[C@H](CC(C)C)NC(=O)[C@H](Cc1c[nH]cn1)NC(=O)CNC(=O)[C@H](Cc1c[nH]cn1)NC(=O)[C@H](CCC(N)=O)NC(=O)[C@H](CO)NC(=O)[C@H](C)NC(=O)[C@@H](NC(=O)[C@H](Cc1c[nH]cn1)NC(=O)[C@H](CC(C)C)NC(=O)[C@H](C)NC(=O)[C@H](CO)NC(=O)[C@H](CC(N)=O)NC(=O)CNC(=O)[C@H](CCCCN)NC(C)=O)C(C)C)C(=O)N[C@@H](CCC(N)=O)C(=O)N[C@H](C(=O)N[C@@H](CC(C)C)C(=O)N[C@H](C(=O)N[C@@H](CCCNC(=N)N)C(=O)N[C@@H](Cc1ccc(O)cc1)C(=O)NCC(=O)N[C@@H](C)C(=O)N[C@@H](CC(N)=O)C(=O)N[C@H](C(=O)N[C@H](C(=O)N[C@@H](CCSC)C(=O)N[C@@H](CCC(N)=O)C(=O)N[C@@H](CC(N)=O)C(=O)N[C@@H](Cc1c[nH]cn1)C(=O)NCC(N)=O)[C@@H](C)O)C(C)C)C(C)C)[C@@H](C)O` [ANK peptide] (Ac-KGNSALHVASQHGHLGCIQTLVRYGANVTMQNHG-NH2): the “decrease in ANS fluorescence intensity on formation of the SNCG-ANK complex” value on SNCG is given as about 20%.

Turning to “EGFP-ANK: ANK peptide expressed as a fusion protein with its amino-terminal linked to EGFP protein, approximately 37 kDa ({EGFP}-KGNSALHVASQHGHLGCIQTLVRYGANVTMQNHG)”, the “increase in the number of mitotic arrested cells” value with MCF7-SNCG cells [1] is given as about 2 fold. In the assay on MCF7-Neo cells, the mitotic index result is “did not significantly alter” and the “percentage of apoptotic cells” value was “did not significantly alter”. The “increase in positive phosphorylated histones (anti-phospho-H3 staining)” value in the assay with MCF7-SNCG cells [2] (versus MCF7-SNCG cells not containing EGFP-ANK) is 3,5 fold. The “increase in apoptotic/dead cell population” value in the assay on MCF7-SNCG cells [2] (cell cycle analysis, versus control vector pEGFP) is recorded as “almost a four-fold increase”.
